The Deep4Chem optical property database
Blank lines part the entries; values can stand above or below the compound they belong to.

Experiment: solvent given as SMILES

SMILES: Cc1ccc2c(c1)C1(c3ccccc3-c3ccccc31)c1cc(C)ccc1N2c1ccc2c(c1)Oc1ccccc1P2(=S)c1ccccc1 (stereo not drawn)
absorption maximum (in Cc1ccccc1): 311.25 nm

SMILES: O=[N+]([O-])c1ccc([N+]2=Cc3ccc4c5c(ccc4c3O[B-]2(c2ccccc2)c2ccccc2)C=[N+](c2ccc([N+](=O)[O-])cc2)[B-](c2ccccc2)(c2ccccc2)O5)cc1
absorption maximum (in Cc1ccccc1): 536 nm
absorption maximum (in ClCCl): 541 nm

SMILES: CNc1ccc2nc3cc(Cl)c(Cl)cc3nc2c1
absorption maximum (in CCO): 490 nm

SMILES: F[B-]1(F)n2c(ccc2N2CCOCC2)C(c2ccccc2)=C2C=CC(N3CCOCC3)=[N+]21
absorption maximum (in CC#N): 566 nm
absorption maximum (in CCCCCC): 573 nm
absorption maximum (in CCOC(C)=O): 570 nm
absorption maximum (in CO): 561 nm
absorption maximum (in ClCCl): 572 nm

SMILES: Oc1ccccc1/C=N/CC/N=C/c1ccccc1O
absorption maximum (in CC#N): 396 nm

SMILES: CC(C)(C)Nc1cc(F)c(C(=O)c2cc(F)c(NC(C)(C)C)cc2F)cc1F
absorption maximum (in CCO): 348 nm

SMILES: O=S(=O)(c1cccc(-n2c3ccccc3c3ccccc32)c1)c1cccc(-n2c3ccccc3c3ccccc32)c1
absorption maximum (in C1CCOC1): 323 nm
absorption maximum (in Cc1ccccc1): 338 nm
absorption maximum (in ClC(Cl)Cl): 338 nm

SMILES: COc1ccccc1C1=[N+]2C(=Cc3c4cc5ccccc5cc4c(-c4ccccc4OC)n3[B-]2(F)F)c2cc3ccccc3cc21
absorption maximum (in C1CCOC1): 738 nm

SMILES: CCOC(=O)c1c(-c2cc3ccccc3oc2=O)nn(-c2ccc(C)c(C)c2)c1C(=O)OCC
absorption maximum (in ClCCl): 322 nm

SMILES: CCCCCCN1C(=O)c2cccc3c(-c4ccc(-c5cc(-c6ccc(C)cc6)n(-c6ccccc6)n5)s4)ccc(c23)C1=O
absorption maximum (in ClCCl): 402 nm

SMILES: O=C1CCCC2=C1C(c1cccc(Cl)c1)c1c(c3ccccc3oc1=O)N2 (stereo not drawn)
absorption maximum (in CS(C)=O): 373 nm

SMILES: CCCCc1ccc(-n2c3c(c4c2c2c(n4-c4ccc(CCCC)cc4)-c4cc(F)ccc4NB2c2ccccc2)B(c2ccccc2)Nc2ccc(F)cc2-3)cc1
absorption maximum (in Cc1ccccc1): 395 nm

SMILES: c1ccc([B-]2(c3ccccc3)Oc3ccc4ccccc4c3-c3c4ccccc4cn[n+]32)cc1
absorption maximum (in Cc1ccccc1): 436 nm

SMILES: N#Cc1c(N2CCCCC2)cc(-c2ccc(O)cc2)c2c1-c1cccc3cccc-2c13
absorption maximum (in O): 432 nm

SMILES: Fc1cc(F)c2cc3cccc[n+]3cc2c1
absorption maximum (in O): 407 nm

SMILES: Cc1c2c(c(C)c3ccccc13)-c1cc3nc4ccccc4nc3cc1-2
absorption maximum (in ClC(Cl)Cl): 448 nm

SMILES: CCCCCCC(CCCCCC)N1C(=O)c2cccc3c(-c4ccc(OC)c5cccc(C)c45)ccc(c23)C1=O
absorption maximum (in CCCCCC): 326.6 nm
absorption maximum (in CCCCCCCCCCCCCC): 327 nm
absorption maximum (in CCCCCCCCCCCO): 329 nm
absorption maximum (in CCCCO): 327.8 nm
absorption maximum (in CN(C)C=O): 328.8 nm
absorption maximum (in Cc1ccccc1): 328.8 nm
absorption maximum (in ClC(Cl)Cl): 329 nm

SMILES: c1ccc(COc2cc(C[n+]3ccc(-c4cc[n+](Cc5cc(OCc6ccccc6)cc(OCc6ccccc6)c5)cc4)cc3)cc(OCc3ccccc3)c2)cc1
absorption maximum (in CC#N): 261 nm

SMILES: Cc1c2ccc3c(C)[n+](C)ccc3c2cc[n+]1C
absorption maximum (in CC#N): 390 nm

SMILES: CCCCN1C(=O)c2cccc3c(N(C)C)ccc(c23)C1=O
absorption maximum (in CC#N): 416 nm
absorption maximum (in CS(C)=O): 428 nm
absorption maximum (in Cc1ccccc1): 403 nm

SMILES: CCCCCCCCN1c2ccc(C#Cc3cc(C(F)(F)F)cc(C(F)(F)F)c3)cc2Sc2cc(C=O)ccc21
absorption maximum (in C1CCOC1): 382 nm
absorption maximum (in CC#N): 386 nm
absorption maximum (in CCCCCC): 372 nm
absorption maximum (in CO): 366 nm
absorption maximum (in CS(C)=O): 396 nm
absorption maximum (in Cc1ccccc1): 381.01 nm
absorption maximum (in ClC(Cl)Cl): 386 nm

The remaining lines, values ahead:

absorption maximum (in ClCCl): 336 nm
SMILES: C[Si]1(C)c2ccccc2-c2ccccc21

absorption maximum (in CC#N): 396 nm
absorption maximum (in ClCCl): 398 nm
SMILES: COC(=O)c1cc(=O)n(C)c2cc(-c3ccccc3OC)sc12

absorption maximum (in ClCCl): 350 nm
SMILES: CN1c2ccc3c(c2-c2ccccc2S1(=O)=O)-c1ccccc1S(=O)(=O)N3C

absorption maximum (in C1COCCO1): 331 nm
absorption maximum (in CC#N): 330 nm
absorption maximum (in CO): 335 nm
absorption maximum (in ClCCl): 328 nm
absorption maximum (in O): 325 nm
SMILES: COC(=O)c1nc2cnc(N)nc2n1Cc1ccccc1

absorption maximum (in CC#N): 347 nm
SMILES: COc1ccc(-c2pc3ccccc3s2)cc1 (stereo not drawn)

absorption maximum (in ClCCl): 580 nm
SMILES: COc1ccc(-c2c3cc4ccccc4cc3c(C#Cc3ccccc3)c3cc4cc(C)sc4cc23)cc1

absorption maximum (in ClCCl): 376 nm
SMILES: COc1cc2c3sc4ccccc4c3c3cncnc3c2c(OC)c1OC

absorption maximum (in CCO): 259 nm
absorption maximum (in ClC(Cl)Cl): 360 nm
SMILES: COc1ccc2c(-c3nc(-c4cccc(Br)c4)no3)cc(=O)oc2c1

absorption maximum (in C1CCCCC1): 336 nm
SMILES: COc1ccc(C2=C(c3ccc(OC)cc3)C(C)(C)c3c2ccc2ccccc32)cc1

absorption maximum (in C1CCOC1): 328 nm
SMILES: COc1ccc(-n2c(-c3ccc(-c4cncc5ccccc45)cc3)nc(-c3ccccc3)c2-c2ccccc2)cc1

absorption maximum (in C1CCCCC1): 334 nm
absorption maximum (in C1COCCO1): 336 nm
absorption maximum (in CC#N): 328 nm
absorption maximum (in CC(C)(C)O): 338 nm
absorption maximum (in CC(C)O): 338 nm
absorption maximum (in CCCCCC): 333 nm
absorption maximum (in CCCCO): 340 nm
absorption maximum (in CCOC(C)=O): 334 nm
absorption maximum (in CN(C)C=O): 338 nm
absorption maximum (in CO): 343 nm
absorption maximum (in ClCCl): 331 nm
absorption maximum (in O): 330 nm
SMILES: COc1ccc(C(=O)/C=C2\C(=O)Nc3ccccc32)c(OC)c1

absorption maximum (in ClC(Cl)Cl): 421 nm
SMILES: F[B-]1(F)OC(c2ccc(N3CCCCC3)cc2)=Cc2cccc[n+]21

absorption maximum (in C1COCCO1): 287 nm
SMILES: CCC(C)(C)c1ccc(-c2ccc(-c3ccccc3)cc2)cc1

absorption maximum (in ClC(Cl)Cl): 340 nm
SMILES: N#Cc1ccc(C#Cc2ccc(C#Cc3ccccc3C#N)cc2C#N)cc1
